Our source for the IC50 values is patent publication US12427187B2, “Glucose-responsive insulin conjugates” (priority 2019, dated 2025).

The first assay addresses T1, Human macrophage mannose receptor 1 (MRC1) (Homo sapiens, UniProt P22897).
T1 sequence (P22897 19-1456): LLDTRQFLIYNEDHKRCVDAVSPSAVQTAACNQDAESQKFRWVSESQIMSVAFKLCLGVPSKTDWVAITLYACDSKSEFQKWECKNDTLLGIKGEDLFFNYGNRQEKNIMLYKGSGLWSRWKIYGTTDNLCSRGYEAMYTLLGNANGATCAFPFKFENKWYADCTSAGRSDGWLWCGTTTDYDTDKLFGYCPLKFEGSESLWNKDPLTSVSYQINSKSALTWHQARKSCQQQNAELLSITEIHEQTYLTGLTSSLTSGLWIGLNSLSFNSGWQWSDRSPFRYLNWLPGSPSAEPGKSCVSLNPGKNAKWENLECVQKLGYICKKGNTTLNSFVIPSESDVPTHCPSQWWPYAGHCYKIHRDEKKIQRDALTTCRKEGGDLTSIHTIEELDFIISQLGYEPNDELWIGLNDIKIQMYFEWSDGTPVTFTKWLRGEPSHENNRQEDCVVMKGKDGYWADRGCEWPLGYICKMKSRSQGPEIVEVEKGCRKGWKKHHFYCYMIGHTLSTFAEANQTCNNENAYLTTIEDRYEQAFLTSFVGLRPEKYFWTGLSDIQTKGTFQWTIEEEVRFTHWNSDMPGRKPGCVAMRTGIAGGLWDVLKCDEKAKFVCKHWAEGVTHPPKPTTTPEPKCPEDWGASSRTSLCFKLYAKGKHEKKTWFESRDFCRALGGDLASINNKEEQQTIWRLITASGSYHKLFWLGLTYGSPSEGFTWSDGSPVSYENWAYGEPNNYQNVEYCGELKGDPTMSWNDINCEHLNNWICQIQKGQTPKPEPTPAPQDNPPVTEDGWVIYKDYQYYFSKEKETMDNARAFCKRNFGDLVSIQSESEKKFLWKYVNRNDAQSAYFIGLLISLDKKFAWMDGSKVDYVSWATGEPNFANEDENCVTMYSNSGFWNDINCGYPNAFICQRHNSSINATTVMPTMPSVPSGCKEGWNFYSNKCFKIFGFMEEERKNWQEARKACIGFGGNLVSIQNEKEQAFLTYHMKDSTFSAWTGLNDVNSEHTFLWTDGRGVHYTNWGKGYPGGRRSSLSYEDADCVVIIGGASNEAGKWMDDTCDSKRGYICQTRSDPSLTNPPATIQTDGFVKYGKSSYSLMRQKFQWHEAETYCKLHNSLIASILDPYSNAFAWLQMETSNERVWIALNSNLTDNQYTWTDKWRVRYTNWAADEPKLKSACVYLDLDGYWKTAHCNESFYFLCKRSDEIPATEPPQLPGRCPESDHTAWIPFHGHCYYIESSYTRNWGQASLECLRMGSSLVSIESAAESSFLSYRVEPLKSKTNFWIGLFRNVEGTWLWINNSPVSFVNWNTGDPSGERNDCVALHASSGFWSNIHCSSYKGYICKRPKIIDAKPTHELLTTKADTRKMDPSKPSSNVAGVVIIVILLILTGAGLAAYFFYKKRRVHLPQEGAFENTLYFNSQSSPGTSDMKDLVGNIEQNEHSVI
The assay can be described thus: MRC1 competition binding assay with Eu-mannosylated-BSA. As to conditions: Method E: 96-well plate; IP = inflection point; read-out: MRC1 Binding IP.
Method: The competition binding assay for Human macrophage mannose receptor 1 (MRC1) utilized a ligand, mannosylated-BSA labeled with the DELFIA Eu-N1-ITC reagent, as reported in the literature. Assay was performed either in a 96-well plate with 100 μL well volume (Method E) or in a 384-well plate with 25 μL well volume (Method F). […] The antibody was incubated in the plate for 1 hr at rt with shaking. The plate was washed with wash buffer 3-5 times followed by addition of MRC1 (2 ng/μl final concentration) in PBS containing 1% stabilizer BSA. The plate was incubated at rt with gentle shaking for 1 hr. The plate was washed three times with wash buffer. The IOC molecules in 12.5 μL (or 50 μL depending on plate format) buffer at appropriate concentrations were added followed by 12.5 μL (or 50 μL) Eu-mannosylated-BSA (0.1 nm final concentration) in 50 mM Tris, pH 7.5 containing 100 mM NaCl, 5 mM CaCl2, 1 mM MgCl2 and 0.2% stabilizer BSA. The plate was incubated for 2 hrs at rt with shaking followed by washing three times with wash buffer.
As for `CC(=O)[C@H](CCCCN)NC(=O)CCCCC(=O)N[C@@H](CCC(=O)NCCCCCC(=O)N(CCOC1O[C@H](CO)[C@@H](O)[C@H](O)[C@@H]1O)CCOC1O[C@H](CO)[C@@H](O)[C@H](O)[C@@H]1O)C(=O)N[C@@H](CCC(=O)NCCCCCC(=O)N(CCOC1O[C@H](CO)[C@@H](O)[C@H](O)[C@@H]1O)CCO[C@H]1O[C@H](CO)[C@@H](O)[C@H](O)[C@@H]1O)C(=O)N[C@@H](CC(C)C)C(=O)NCCCCCC(=O)N(CCOC1O[C@H](CO)[C@@H](O)[C@H](O)[C@@H]1O)CCOC1O[C@H](CO)[C@@H](O)[C@H](O)[C@@H]1O` (stereo partly drawn) [IOC-49], the IC50 was found to be 54.5 nM.

Staying with this assay, now noted: Method F: 384-well plate; IP = inflection point; read-out: MRC1 Binding IP.
Regarding `CC(=O)[C@H](CCCCN)NC(=O)CCCCCNC(=O)[C@H](CCCCNC(=O)CN(CC(=O)NCCO[C@@H]1O[C@@H](C)[C@@H](O)[C@@H](O)[C@@H]1O)CC(=O)NCCO[C@@H]1O[C@@H](C)[C@@H](O)[C@@H](O)[C@@H]1O)NC(=O)[C@H](CCCCNC(=O)CN(CC(=O)NCCO[C@@H]1O[C@@H](C)[C@@H](O)[C@@H](O)[C@@H]1O)CC(=O)NCCO[C@@H]1O[C@@H](C)[C@@H](O)[C@@H](O)[C@@H]1O)NC(=O)CN(CC(=O)NCCO[C@@H]1O[C@@H](C)[C@@H](O)[C@@H](O)[C@@H]1O)CC(=O)NCCO[C@@H]1O[C@@H](C)[C@@H](O)[C@@H](O)[C@@H]1O` [IOC-47], the IC50 was determined as 10.6 nM.

Take `CC(=O)[C@H](CCCCN)NC(=O)CCCCC(=O)NCC(=O)N[C@@H](CCC(=O)N[C@@H](CCC(=O)NCCCCCC(=O)N(CCOC1O[C@H](CO)[C@@H](O)[C@H](O)[C@@H]1O)CCO[C@H]1O[C@H](CO)[C@@H](O)[C@H](O)[C@@H]1O)C(=O)NCCCCCC(=O)N(CCOC1O[C@H](CO)[C@@H](O)[C@H](O)[C@@H]1O)CCOC1O[C@H](CO)[C@@H](O)[C@H](O)[C@@H]1O)C(=O)NCCCCCC(=O)N(CC(=O)NCCO[C@@H]1O[C@@H](C)[C@@H](O)[C@@H](O)[C@@H]1O)CC(=O)NCCO[C@@H]1O[C@@H](C)[C@@H](O)[C@@H](O)[C@@H]1O` (stereo partly drawn) [IOC-51]: the IC50 is 28.8 nM. On to `CC(=O)[C@H](CCCCN)NC(=O)CCCCCNC(=O)[C@H](CCCCNC(=O)CCCCCNC(=O)CCCCCNC(=O)CN(CC(=O)NCCO[C@H]1O[C@H](CO)[C@@H](O)[C@H](O)[C@@H]1O)CC(=O)NCCO[C@H]1O[C@H](CO)[C@@H](O)[C@H](O)[C@@H]1O)NC(=O)[C@H](CCCCNC(=O)CCCCCNC(=O)CN(CC(=O)NCCO[C@H]1O[C@H](CO)[C@@H](O)[C@H](O)[C@@H]1O)CC(=O)NCCO[C@H]1O[C@H](CO)[C@@H](O)[C@H](O)[C@@H]1O)NC(=O)CCCCCNC(=O)CN(CC(=O)NCCO[C@H]1O[C@H](CO)[C@@H](O)[C@H](O)[C@@H]1O)CC(=O)NCCO[C@H]1O[C@H](CO)[C@@H](O)[C@H](O)[C@@H]1O` [IOC-52], for which the IC50 amounted to 49.1 nM.

`CC(=O)[C@H](CCCCN)NC(=O)CCCCCNC(=O)[C@H](CCCCNC(=O)CCCCCNC(=O)CCCCCNC(=O)CN(CC(=O)NCCO[C@H]1O[C@H](CO)[C@@H](O)[C@H](O)[C@@H]1O)CC(=O)NCCO[C@@H]1O[C@@H](C)[C@@H](O)[C@@H](O)[C@@H]1O)NC(=O)[C@H](CCCCNC(=O)CCCCCNC(=O)CN(CC(=O)NCCO[C@H]1O[C@H](CO)[C@@H](O)[C@H](O)[C@@H]1O)CC(=O)NCCO[C@@H]1O[C@@H](C)[C@@H](O)[C@@H](O)[C@@H]1O)NC(=O)CCCCCNC(=O)CN(CC(=O)NCCO[C@H]1O[C@H](CO)[C@@H](O)[C@H](O)[C@@H]1O)CC(=O)NCCO[C@@H]1O[C@@H](C)[C@@H](O)[C@@H](O)[C@@H]1O` [IOC-53]: the IC50 came to 9.22 nM. Still for that read-out and setting: under `CC(=O)[C@H](CCCCN)NC(=O)CCCCC(=O)N[C@@H](CCC(=O)N[C@@H](CCC(=O)N[C@@H](CCC(=O)N[C@@H](CCC(=O)N[C@@H](CCC(=O)NCCO[C@@H]1O[C@@H](C)[C@@H](O)[C@@H](O)[C@@H]1O)C(=O)NCCO[C@@H]1O[C@@H](C)[C@@H](O)[C@@H](O)[C@@H]1O)C(=O)NCCO[C@@H]1O[C@@H](C)[C@@H](O)[C@@H](O)[C@@H]1O)C(=O)NCCO[C@@H]1O[C@@H](C)[C@@H](O)[C@@H](O)[C@@H]1O)C(=O)NCCO[C@@H]1O[C@@H](C)[C@@H](O)[C@@H](O)[C@@H]1O)C(=O)NCCO[C@@H]1O[C@@H](C)[C@@H](O)[C@@H](O)[C@@H]1O` [IOC-54] stands 8.91 nM.
